We go through 24 compounds from patent US12528778B2, “Microbiocidal derivatives” (SYNGENTA CROP PROTECTION AG, priority 2019, dated 2026).

The test system of assay [1] is Monographella nivalis (Microdochium nivale). As to the kind of experiment: Monographella nivalis (Microdochium nivale) / liquid culture (foot rot cereals). It is filed as cell-based. The conditions noted are these: PDB liquid culture, 24° C., growth inhibition determined photometrically 4-5 days after application, vs untreated control. The protocol:
Example B5: Monographella nivalis (Microdochium nivale)/Liquid Culture (Foot Rot Cereals) Conidia of the fungus from cryogenic storage are directly mixed into nutrient broth (PDB potato dextrose broth). After placing a (DMSO) solution of test compound into a microtiter plate (96-well format), the nutrient broth containing the fungal spores is added. The test plates are incubated at 24° C. and the inhibition of growth is determined photometrically 4-5 days after application. […] […]-49, and P-50.

The test system of assay [2] is Glomerella lagenarium (Colletotrichum lagenarium). Nature of the assay: Glomerella lagenarium (Colletotrichum lagenarium) / liquid culture (anthracnose). It is filed as cell-based. The conditions noted are these: Colletotrichum orbiculare, PDB liquid culture, 24° C., growth inhibition measured photometrically 3-4 days after application, vs untreated control. The protocol:
Example B2: Glomerella lagenarium (Colletotrichum lagenarium)/Liquid Culture (Anthracnose) Conidia of the fungus from cryogenic storage are directly mixed into nutrient broth (PDB potato dextrose broth). After placing a (DMSO) solution of test compound into a microtiter plate (96-well format), the nutrient broth containing the fungal spores is added. The test plates are incubated at 24° C. and the inhibition of growth is measured photometrically 3-4 days after application. […] […]-49, and P-50.

The test system of assay [3] is Mycosphaerella graminicola (Septoria tritici). Nature of the assay: Mycosphaerella graminicola (Septoria tritici) / liquid culture (Septoria blotch). The assay is classed as cell-based. The conditions noted are these: Zymoseptoria tritici, PDB liquid culture, 24° C., growth inhibition determined photometrically 4-5 days after application, vs untreated control. The protocol: Example B12: Mycosphaerella graminicola (Septoria tritici)/Liquid Culture (Septoria Blotch) Conidia of the fungus from cryogenic storage are directly mixed into nutrient broth (PDB potato dextrose broth). After placing a (DMSO) solution of test compound into a microtiter plate (96-well format), the nutrient broth containing the fungal spores is added. The test plates are incubated at 24° C. and the inhibition of growth is determined photometrically 4-5 days after application. […] […]-48, and P-49.

In assay [4] the test system is Magnaporthe grisea (Pyricularia oryzae). As to the kind of experiment: whole plant or invertebrate. The conditions noted are these: foliar, read-out: control of Magnaporthe grisea. The assay is classed as in vivo.
The test system of assay [5] is Blumeria graminis f. sp. tritici (Erysiphe graminis f. sp. tritici). As to the kind of experiment: Blumeria graminis f. sp. tritici / wheat / leaf disc preventative (powdery mildew on wheat). The assay is classed as in vivo. The following applies: foliar, wheat leaf segments cv. Kanzler, inoculated 1 day after application, assessed 6-8 days after application, vs untreated control. The protocol: Example B3: Blumeria graminis f. sp. tritici (Erysiphe graminis f. so. tritici)/Wheat/Leaf Disc Preventative (Powdery Mildew on Wheat) Wheat leaf segments cv. Kanzler are placed on agar in a multiwell plate (24-well format) and sprayed with the formulated test compound diluted in water. The leaf disks are inoculated by shaking powdery mildew infected plants above the test plates 1 day after application. The inoculated leaf disks are incubated at 20°° C. and 60% rh under a light regime of 24 h darkness followed by 12 h light/12 h darkness in a climate chamber and the activity of a compound is assessed as percent disease control compared to untreated when an appropriate level of disease damage appears on untreated check leaf segments (6-8 days after application). […]-45, and P-50.

Broadly, the inhibition of growth is the change of the read-out against control, counted positive when it falls. Low values mean little suppression, high ones strong suppression.

In the case of `COc1ncc(NC2CCC2)nc1C(=O)NC1CCC1(C)C` (stereo not drawn) [Compound P-2, 6-(cyclobutylamino)-N-(2,2-dimethylcyclobutyl)-3-methoxy-pyrazine-2-carboxamide], the inhibition of growth at 20 ppm in assay [1], in assay [2] and in assay [3] was not below 80% each time.

In the case of `COc1ncc(NC2CC2)nc1C(=O)NC1CCC1(C)C` (stereo not drawn) [Compound P-3, 6-(cyclopropylamino)-N-(2,2-dimethylcyclobutyl)-3-methoxy-pyrazine-2-carboxamide], the inhibition of growth at 20 ppm in assay [1] and in assay [2] was not below 80% in each case.

Consider `COc1ncc(Nc2cc(F)cc(F)c2)nc1C(=O)NC1CCN(c2cccc(OC(F)(F)F)c2)C1=O` (stereo not drawn) [Compound P-6, 6-(3,5-difluoroanilino)-3-methoxy-N-[2-oxo-1-[3-(trifluoromethoxy)phenyl]pyrrolidin-3-yl]pyrazine-2-carboxamide], for which, in assay [4], the pest or weed control at 200 ppm was not below 80%. The inhibition of growth at 20 ppm in assay [1] and in assay [2] was not below 80% each time.

With `COc1ncc(Nc2cc(F)cc(F)c2)nc1C(=O)NC1(c2ccccn2)CC1` [Compound P-7, 6-(3,5-difluoroanilino)-3-methoxy-N-[1-(2-pyridyl)cyclopropyl] pyrazine-2-carboxamide], the inhibition of growth at 20 ppm in assay [1] was not below 80%.

`COc1ncc(NCC(C)(C)O)nc1C(=O)NC1CCC1(C)C` (stereo not drawn) [Compound P-8, N-(2,2-dimethylcyclobutyl)-6-[(2-hydroxy-2-methyl-propyl)amino]-3-methoxy-pyrazine-2-carboxamide]: the inhibition of growth at 20 ppm in assay [1] and in assay [2] was not below 80% each time. The same compound displayed a pest or weed control at 200 ppm in assay [5] not below 80%.

With `COc1ncc(Nc2cnsc2)nc1C(=O)NCCc1ccc(OC(F)(F)F)cc1` [Compound P-10], the inhibition of growth at 20 ppm in assay [1] and in assay [2] was not below 80% in each case.

Turning to `COc1ncc(Nc2cnsc2)nc1C(=O)NCC1(C(F)(F)F)CC1` [Compound P-11], the inhibition of growth at 20 ppm in assay [1], in assay [2] and in assay [3] was not below 80% each time.

In the case of `COc1ncc(Nc2cnsc2)nc1C(=O)NCc1cccc2c1OC(F)(F)O2` [Compound P-12, N-[(2,2-difluoro-1,3-benzodioxol-4-yl)methyl]-6-(isothiazol-4-ylamino)-3-methoxy-pyrazine-2-carboxamide], the inhibition of growth at 20 ppm in assay [1], in assay [2] and in assay [3] was not below 80% throughout.

For `COc1ncc(Nc2cnsc2)nc1C(=O)NC1CCc2ccc(C(F)(F)F)cc21` (stereo not drawn) [Compound P-14, 6-(isothiazol-4-ylamino)-3-methoxy-N-[6-(trifluoromethyl)indan-1-yl]pyrazine-2-carboxamide], in assay [4], the pest or weed control at 200 ppm was not below 80%. The inhibition of growth at 20 ppm in assay [1], in assay [2] and in assay [3] was not below 80% each time.

Take `COc1ncc(Nc2cnsc2)nc1C(=O)NC1CCc2cc(C(F)(F)F)ccc21` (stereo not drawn) [Compound P-15, 6-(isothiazol-4-ylamino)-3-methoxy-N-[5-(trifluoromethyl)indan-1-yl]pyrazine-2-carboxamide]: the inhibition of growth at 20 ppm in assay [1], in assay [2] and in assay [3] was not below 80% each time.

Regarding `CCON=C(CNC(=O)c1nc(Nc2cc(F)cc(F)c2)cnc1OC)c1ncc(Cl)cc1Cl` [Compound P-17, N-[2-(3,5-dichloro-2-pyridyl)-2-ethoxyimino-ethyl]-6-(3,5-difluoroanilino)-3-methoxy-pyrazine-2-carboxamide], the inhibition of growth at 20 ppm in assay [1] and in assay [2] was not below 80% each time.

Consider `COc1ncc(Nc2cc(F)cc(F)c2)nc1C(=O)NCCc1ccc(OC(F)(F)F)cc1` [Compound P-18, 6-(3,5-difluoroanilino)-3-methoxy-N-[2-[4-(trifluoromethoxy)phenyl]ethyl]pyrazine-2-carboxamide], for which the inhibition of growth at 20 ppm in assay [1] and in assay [2] was not below 80% in each case.

With `COc1ncc(Nc2cc(F)cc(F)c2)nc1C(=O)NCC1(c2ccc(C(F)(F)F)cn2)CC1` [Compound P-19, 6-(3,5-difluoroanilino)-3-methoxy-N-[[1-[5-(trifluoromethyl)-2-pyridyl]cyclopropyl]methyl]pyrazine-2-carboxamide], the pest or weed control at 200 ppm in assay [4] was not below 80%. Besides, the inhibition of growth at 20 ppm in assay [1] and in assay [2] was not below 80% each time.

As for `COc1ncc(Nc2cc(F)cc(F)c2)nc1C(=O)NCc1c(Cl)cncc1Cl` [Compound P-23, N-[(3.5-dichloro-4-pyridyl)methyl]-6-(3,5-difluoroanilino)-3-methoxy-pyrazine-2-carboxamide], the pest or weed control at 200 ppm in assay [4] was not below 80%. In assay [2], this compound returned an inhibition of growth at 20 ppm not below 80%.

Consider `COc1ncc(Nc2cc(F)cc(F)c2)nc1C(=O)NCC1COc2ccccc21` (stereo not drawn) [Compound P-26, 6-(3,5-difluoroanilino)-N-(2,3-dihydrobenzofuran-3-yimethyl)-3-methoxy-pyrazine-2-carboxamide], for which the pest or weed control at 200 ppm in assay [4] is not below 80%. In assay [2], this compound came in with an inhibition of growth at 20 ppm not below 80%.

`COc1ncc(Nc2cc(F)cc(F)c2)nc1C(=O)NCc1cccc2ccnn12` [Compound P-27] registered an inhibition of growth at 20 ppm in assay [2] not below 80%.

Regarding `COc1ncc(Nc2cc(F)cc(F)c2)nc1C(=O)NC1CCc2ccc(C(F)(F)F)cc21` (stereo not drawn) [Compound P-31, 6-(3,5-difluoroanilino)-3-methoxy-N-[6-(trifluoromethyl)indan-1-yl]pyrazine-2-carboxamide], the inhibition of growth at 20 ppm in assay [2] and in assay [3] was not below 80% in each case.

On to `COc1ncc(Nc2cc(F)cc(F)c2)nc1C(=O)NC1CCc2cc(C(F)(F)F)ccc21` (stereo not drawn) [Compound P-32, 6-(3,5-difluoroanilino)-3-methoxy-N-[5-(trifluoromethyl)indan-1-yl]pyrazine-2-carboxamide], for which the inhibition of growth at 20 ppm in assay [1], in assay [2] and in assay [3] was not below 80% each time.

With `CCON=C(CNC(=O)c1nc(Nc2cc(F)nc(F)c2)cnc1OC)c1ncc(Cl)cc1Cl` [Compound P-33, N-[2-(3,5-dichloro-2-pyridyl)-2-ethoxyimino-ethyl]-6-[(2,6-difluoro-4-pyridyl)amino]-3-methoxy-pyrazine-2-carboxamide], the inhibition of growth at 20 ppm in assay [2] was not below 80%.

Turning to `COc1ncc(Nc2cc(F)nc(F)c2)nc1C(=O)NCc1ccc(Oc2ccccc2)cc1` [Compound P-36, 6-[(2,6-difluoro-4-pyridyl)amino]-3-methoxy-N-[(4-phenoxyphenyl)methyl]pyrazine-2-carboxamide], in assay [4], the pest or weed control at 200 ppm is not below 80%. This compound also returned an inhibition of growth at 20 ppm in assay [2] not below 80%.

`COc1ncc(Nc2cnsc2)nc1C(=O)NC1CCC1(C)C` (stereo not drawn) [Compound P-42, (isothiazol-4-ylamino)-N-(2,2-dimethylcyclobutyl)-6-3-methoxy-pyrazine-2-carboxamide]: in assay [4], the pest or weed control at 200 ppm was not below 80%. Also, the inhibition of growth at 20 ppm in assay [1] and in assay [3] was not below 80% each time.

Regarding `CC1(C)CCC1NC(=O)c1cncc(Nc2cc(F)nc(F)c2)n1` (stereo not drawn) [Compound P-46, 6-[(2,6-difluoro-4-pyridyl)amino]-N-(2,2-dimethylcyclobutyl) pyrazine-2-carboxamide], the inhibition of growth at 20 ppm in assay [1], in assay [2] and in assay [3] was not below 80% in each case.

In the case of `Cc1ncc(Nc2cc(F)cc(F)c2)nc1C(=O)NC1CCC1(C)C` (stereo not drawn) [Compound P-47, 6-(3,5-difluoroanilino)-N-(2,2-dimethylcyclobutyl)-3-methyl-pyrazine-2-carboxamide], the pest or weed control at 200 ppm in assay [4] is not below 80%. Also, the inhibition of growth at 20 ppm in assay [1] and in assay [2] was not below 80% each time.

Take `CC1(NC(=O)c2cncc(Nc3cc(F)nc(F)c3)n2)CCCC1` [Compound P-49, 6-[(2,6-difluoro-4-pyridyl)amino]-N-(1-methylcyclopentyl) pyrazine-2-carboxamide]: the pest or weed control at 200 ppm in assay [4] was not below 80%. Besides, the inhibition of growth at 20 ppm in assay [1], in assay [2] and in assay [3] was not below 80% in each case.
